Data from US3932459A, “Novel cyclopropanecarboxylic acid esters” (Sumitomo Chemical Company, Limited, priority 1973, dated 1976).
Values after ≈ are worked out from the molar mass of the structure shown.

Columns and labels:
[1] = system: green rice leafhoppers (Nephotettix cincpriceps); experiment: Knock-down of green rice leafhoppers on treated rice seedlings (Experiment 3); type: in vivo; settings: 400-fold aqueous diluted solution of 20% emulsifiable concentrate
Procedure: Each of the present compounds (1) to (7), and the corresponding chrysanthemic acid esters were individually formulated into a 20% emulsifiable concentrate by usual methods.
About 20 rice seedlings were grown up to a 3- to 4-leave stage in a flower pot of 10 cm in diameter, and the 400-fold aqueous diluted solution of each emulsifiable concentrate was applied thereto by means of a turn table.
After air-drying, each pot was placed in a 5 liter glass beaker and covered with gauze at the top. Then, 20 green rice leafhoppers (Nephotettix cincpriceps) were liberated therein and the number of knocked down insects were counted at definite time intervals.

[2] = system: fourth instar larvae of diamond-back moth (Plutella maculipennis); experiment: Emulsifiable concentrate sprayed on chinese cabbage leaves, diamond-back moth larvae (Experiment 2); type: in vivo; settings: for LC50: Plutella, 48 h, 20% emulsifiable concentrate diluted with water, after 2 days, read-out: LC50 (50% lethal concentration); for Relative efficacy: corresponding chrysanthemic acid ester (control) = 1.0
Procedure: Each of the present compounds (1), (2) and (5), and the corresponding chrysanthemic acid esters were individually formulated into a 20% emulsifiable concentrate by usual methods.
10 ml of each of the emulsifiable concentrates which had been diluted with water to the required concentration were sprayed on to four leaves of chinese cabbage grown up to a 3- to 4-leave stage. Then the leaves were placed in a glass Petri dish of 14 cm in diameter and 7 cm high, and 10 fourth instar larvae of diamond-back moth (Plutella maculipennis) were liberated therein. After 2 days, the dead and alive were counted.

[3] = system: house-fly adults (Musca domestica); experiment: Oil spray, Campbel's turn table apparatus, house-fly adults (Experiment 1); type: in vivo; settings: for LC50: Musca domestica, read-out: LC50 (50% lethal concentration); for Relative efficacy: corresponding dl-trans-chrysanthemic acid ester (control) = 1.0
Procedure: The dl-trans isomer of each of the present compounds (1), (2), (4) and (7), and the corresponding dl-trans-chrysanthemic acid esters were individually dissolved in deodorized kerosene to prepare oil sprays of required concentration.
5 ml of each of the oil sprays were sprayed, using Campbel's turn table apparatus ("Soap and Sanitary Chemicals," Vol. 14, No. 6, 119, 1938). Twenty seconds after spraying, the shutter was opened, and about 100 house-fly adults (Musca domestica) per group were exposed to the descending mist for 10 minutes and then transferred to the observation cage. In the cage, the flies were fed and allowed to stand for one day at room temperature.
Thereafter, the number of killed flies was counted to calculate the mortality thereof.

insects = settings: J. Farkas et al., Chem. Listy 52, 688, 1958; cited from earlier work

Molecule	KT50 (a time required for 50% knock-down) [1]	LC50 ([3]; 24 h)	Relative efficacy [3]	other results
CC(C)=CC1C(C(=O)OCc2ccc(Cc3ccccc3)s2)C1(C)C (stereo not shown)	37 min			LC50 [2]: 85 µg/mL (≈ 240 µM); Relative efficacy [2]: 1.0
CC(C)=CC1C(C(=O)OCc2ccc(Oc3ccccc3)s2)C1(C)C (stereo not shown)	45 min			LC50 [2]: 97 µg/mL (≈ 272 µM); Relative efficacy [2]: 1.0
CC(C)=CC1C(C(=O)OCc2csc(Cc3ccccc3)c2)C1(C)C (stereo not shown)	53 min			
CC(C)=CC1C(C(=O)OCc2cc3c(s2)CCCC3)C1(C)C (stereo not shown)	46 min			
CC(C)=CC1C(C(=O)OCc2cc3c(s2)CCC3)C1(C)C (stereo not shown)	43 min			LC50 [2]: 114 µg/mL (≈ 374 µM); Relative efficacy [2]: 1.0
C=CCc1ccc(COC(=O)C2C(C=C(C)C)C2(C)C)s1 (stereo not shown)	40 min			
C#CCc1ccc(COC(=O)C2C(C=C(C)C)C2(C)C)s1 (stereo not shown)	38 min			
CC(C)=CC1C(C(=O)OCc2ccc(C3C=CCC3)s2)C1(C)C (stereo not shown)	40 min			
CC(C)=C[C@@H]1[C@@H](C(=O)OCc2ccc(Cc3ccccc3)s2)C1(C)C (relative stereo)		386 µg/mL (≈ 1090 µM)	1.0	
CC(C)=C[C@@H]1[C@@H](C(=O)OCc2cc3c(s2)CCCC3)C1(C)C (relative stereo)		834 µg/mL (≈ 2620 µM)	1.0	
CC(C)=C[C@@H]1[C@@H](C(=O)OCc2ccc(Oc3ccccc3)s2)C1(C)C (relative stereo)		540 µg/mL (≈ 1510 µM)	1.0	
C#CCc1ccc(COC(=O)[C@@H]2[C@@H](C=C(C)C)C2(C)C)s1 (relative stereo)		858 µg/mL (≈ 2840 µM)	1.0	
CC1(C)[C@H](C=C(Cl)Cl)[C@H]1C(=O)OCc1ccc(Cc2ccccc2)s1 (relative stereo) [dl-Trans isomer of present compound (1), 5-benzyl-2-thenyl 2',2'-dimethyl-3'-(2",2"-dichlorovinyl)-cyclopropanecarboxylate]		90 µg/mL (≈ 228 µM)	4.3	
CC1(C)[C@H](C=C(Cl)Cl)[C@H]1C(=O)OCc1ccc(Oc2ccccc2)s1 (relative stereo) [dl-Trans isomer of present compound (2), 5-Phenoxy-2-thenyl 2',2'-dimethyl-3'-(2",2"-dichlorovinyl)-cyclopropanecarboxylate]		135 µg/mL (≈ 340 µM)	4.0	
CC1(C)[C@H](C=C(Cl)Cl)[C@H]1C(=O)OCc1cc2c(s1)CCCC2 (relative stereo) [dl-Trans isomer of present compound (4), 4-5-Tetramethylene-2-thenyl 2',2'-dimethyl-3'-(2",2"-dichlorovinyl)-cyclopropanecarboxylate]		217 µg/mL (≈ 604 µM)	3.8	
C#CCc1ccc(COC(=O)[C@@H]2[C@@H](C=C(Cl)Cl)C2(C)C)s1 (relative stereo) [dl-Trans isomer of present compound (7), 5-Propargyl-2-thenyl 2',2'-dimethyl-3'-(2",2"-dichlorovinyl)-cyclopropanecarboxylate]		205 µg/mL (≈ 597 µM)	4.2	
CC1(C)C(C=C(Cl)Cl)C1C(=O)OCc1ccc(Cc2ccccc2)s1 (stereo not shown) [Present compound (1), 5-benzyl-2-thenyl 2',2'-dimethyl-3'-(2",2"-dichlorovinyl)-cyclopropanecarboxylate]	17 min			LC50 [2]: 28 µg/mL (≈ 70.8 µM); Relative efficacy [2]: 3.0
CC1(C)C(C=C(Cl)Cl)C1C(=O)OCc1ccc(Oc2ccccc2)s1 (stereo not shown) [Present compound (2), 5-Phenoxy-2-thenyl 2',2'-dimethyl-3'-(2",2"-dichlorovinyl)-cyclopropanecarboxylate]	28 min			LC50 [2]: 37 µg/mL (≈ 93.1 µM); Relative efficacy [2]: 2.6
CC1(C)C(C=C(Cl)Cl)C1C(=O)OCc1csc(Cc2ccccc2)c1 (stereo not shown) [Present compound (3), 5-Benzyl-3-thenyl 2',2'-dimethyl-3'-(2",2"-dichlorovinyl)-cyclopropanecarboxylate]	30 min			
CC1(C)C(C=C(Cl)Cl)C1C(=O)OCc1cc2c(s1)CCCC2 (stereo not shown) [Present compound (4), 4-5-Tetramethylene-2-thenyl 2',2'-dimethyl-3'-(2",2"-dichlorovinyl)-cyclopropanecarboxylate]	24 min			
CC1(C)C(C=C(Cl)Cl)C1C(=O)OCc1cc2c(s1)CCC2 (stereo not shown) [Present compound (5), 4,5-Trimethylene-2-thenyl 2',2'-dimethyl-3'-(2",2"-dichlorovinyl)-cyclopropanecarboxylate]	21 min			LC50 [2]: 47 µg/mL (≈ 136 µM); Relative efficacy [2]: 2.4
C=CCc1ccc(COC(=O)C2C(C=C(Cl)Cl)C2(C)C)s1 (stereo not shown) [Present compound (6), 5-Allyl-2-thenyl 2',2'-dimethyl-3'-(2",2"-dichlorovinyl)-cyclopropanecarboxylate]	19 min			
C#CCc1ccc(COC(=O)C2C(C=C(Cl)Cl)C2(C)C)s1 (stereo not shown) [Present compound (7), 5-Propargyl-2-thenyl 2',2'-dimethyl-3'-(2",2"-dichlorovinyl)-cyclopropanecarboxylate]	15 min			
CC1(C)C(C=C(Cl)Cl)C1C(=O)OCc1ccc(C2C=CCC2)s1 (stereo not shown) [Present compound (8), 5-(2'-cyclopentene-1'-yl)-2-thenyl 2",2"-dimethyl-3"-(2"',2"'-dichlorovinyl)-cyclopropanecarboxylate]	19 min			
C=CCC1=C(C)C(OC(=O)C2C(C=C(Cl)Cl)C2(C)C)CC1=O (stereo not shown) [allethronyl ester of the acid]				insecticidal activity (insects): close to that of chrysanthemic acid ester
Pyrethrin				LC50 (50% lethal concentration) ([3]; house fly, in vivo, 24 h): 216 mg/100 ml
